From patent US20260374815A1, “PIGMENT EPITHELIUM-DERIVED FACTOR PEPTIDES AND USE FOR TREATING RETINAL DEGENERATION” (priority 2022, published 2026)
Where no end group is shown, it is not given here.

Assays:
[1] = test system: photoreceptor function, rd10 mice; test: Electroretinography (ERG), rd10 mice; assay type: in vivo, mouse
Experimental: (§1) At end point, eyes were enucleated and cross section of retinas from the treated animals were obtained. […] Third, electroretinography was performed in untreated and eyes treated with the 17mer[H105A] peptide eyedrops. Following an intense brief flash of light from darkness, the negative-going a-wave is generated by rod photocurrents and the positive-going b-wave by depolarizing bipolar-cell currents in combination with bipolar cell-dependent K^+ currents affecting Müller cells. […] Scotopic b wave was also measured for both rd10 and rd10/SerpinF1 null mice (FIG. 10C). The data from these different assays corroborate the PSVue® data and illustrate the efficacy of eyedrops of the 17mer[H105A] peptide for protecting the photoreceptors against malformation, death, and misfunction in vivo.
At end point, eyes were enucleated and cross section of retinas from the treated animals were obtained. […] Electroretinography was also performed in untreated and eyes of rd10 mice treated with the […] eyedrops. […] The work was done with 3 animals, which may not give statistical significance.

[2] = Penetration or bioavailability of labeled peptide in retina after eyedrop (fluorometry of retinal extract); assay type: in vivo, mouse (C57/B16J); conditions: eyedrops; P21 mice; measured with the Alexa488-labeled peptide
Experimental: To detect labeled peptide in vitro, the labeled Alexa488-17-mer[H105A] peptide was diluted in HBSS at the indicated concentrations (X-axis). A total of 30 μl of each was added to a well in 96-well plate in triplicates. RIPA buffer was added to one dissected mouse retina at 80 μl/retina. The suspension was sonicated for 30 sec at 4 °C followed by centrifugation at 4 °C. 10 min at […] (Eppendorf centrifuge) to separate the soluble retinal extract from the particulate material. The labeled peptide was diluted in retinal extract. A total of 30 μl of each was added to a well in 96-well plate. HBSS (FIG. 18A) or retinal extract (FIG. 18B) were used as a control at zero and different concentrations of 17mer[H105A]-488 as indicated in the x-axis. Fluorescence was determined using a fluorometer [BMG LabTech POLARstar OPTIMA] using wavelength at [Excitation 485-P, Emission 520-P]. Plots were obtained using GraphPad and non-linear fit were analyzed.
At 1, 3, 6 and 24 hours after administration, retinas were dissected, their proteins were extracted with RIPA (80 μl/retina) and clarified by sonication and centrifugation. A total of 30 μl of extracts were used to determine the fluorescence of the peptide with a fluorometer (FIG. 19).

[3] = test system: photoreceptor function, rd10/Serpinf1 null mice; test: Electroretinography (ERG), rd10/Serpinf1 null mice; assay type: in vivo, mouse; conditions: P21, daily eyedrops P15-P20
Experimental: as §1

[4] = P25, eyedrops every other day P15-P24

For QRTESIIARALYYDLIS [17mer[H105A]], the “ERG amplitude of the a-wave” value ([1]; P21, daily eyedrops P15-P20) was “improvement”, the “ERG amplitude of the a-wave” value [1, 4] was “improvement” and the “ERG amplitude of the b-wave” value [1, 4] was “improvement”. The “statistical difference in b-wave between treated and untreated” value ([1]; P25, eyedrops every other day, 3 animals) was “no statistically significant difference”, the “time after eyedrop at which the peptide reached the retina” value [2] was 1 to 24 h and the “ERG amplitude of the a-wave” value [3] was “improvement”.
